The values below come from patent publication US20250122225A1, “MASP-2 INHIBITORS AND METHODS OF USE” (Omeros Corporation, priority 2023, published 2025).

For one experiment, the target named is T1, MASP-2 (CCP1-CCP2-SP) (Homo sapiens, UniProt O00187).
T1 construct: 15 μL of Enzyme MASP-2 (CCP1-CCP2-SP) in Assay Buffer
Nature of the experiment: Enzymatic assay for MASP-2 inhibitory activity (fluorogenic substrate). Type of experiment: biochemical. The method, boiled down: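 MASP-2 (CCP1-CCP2-SP) cleaved a fluorogenic substrate based on the C2 cleavage site in 20 mM HEPES pH 7.4, 140 mM NaCl, 0.1% Tween 20 at room temperature. After 20 min the reaction was stopped with 0.1 M acetic acid and fluorescence read. % activity was normalized to DMSO-only and no-enzyme controls; IC50 taken as Ki.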

Another experiment has as its target T2, human α-thrombin (Homo sapiens, UniProt P00734).
T2 construct: enzyme (human α-thrombin (BioPharm® Lab.)) in assay buffer; purchased BioPharm® Lab
The experiment in a line: Enzymatic assay for thrombin (fluorogenic peptide substrate Boc-VPR-AMC). The class given is biochemical. The essentials:
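Human α-thrombin was run with the fluorogenic substrate Boc-VPR-AMC in 20 mM Hepes pH 7.4, 140 mM NaCl, 0.1% Tween 20 at room temperature for 20 min, then stopped with 0.1 M acetic acid. % activity was normalized to DMSO and no-enzyme controls. Under linear conditions IC50 equalled Ki, except for tight-binding inhibitors.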

Each structure is given as a SMILES string. Counter-ions that a name gives are not always drawn.

T1 sequence (O00187 445-686 limits assumed): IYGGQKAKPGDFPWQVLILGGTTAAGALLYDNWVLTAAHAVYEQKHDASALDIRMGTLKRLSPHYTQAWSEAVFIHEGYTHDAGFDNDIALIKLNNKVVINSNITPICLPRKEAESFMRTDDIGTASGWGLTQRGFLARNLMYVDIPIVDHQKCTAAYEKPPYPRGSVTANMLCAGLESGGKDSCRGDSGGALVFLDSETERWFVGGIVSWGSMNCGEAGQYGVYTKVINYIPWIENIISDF
T1 sequence (O00187 287-444 partner limits assumed): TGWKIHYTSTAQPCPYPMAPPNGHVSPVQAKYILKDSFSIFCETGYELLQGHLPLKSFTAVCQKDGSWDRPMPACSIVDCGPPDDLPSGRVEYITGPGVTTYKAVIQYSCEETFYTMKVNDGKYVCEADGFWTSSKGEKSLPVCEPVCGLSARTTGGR

A word on the Ki: it is a measure of affinity in units of concentration, obtained from inhibition or displacement. Higher therefore signals lower affinity. Take `COc1cc(C)cc(CNc2ncc3n(c2=O)[C@H](C(=O)NCc2cc4c(s2)CNC4)CC3)c1` [Compound 91, (S)-N-((5,6-dihydro-4H-thieno[2,3-c]pyrrol-2-yl)methyl)-3-((3-methoxy-5-methylbenzyl)amino)-4-oxo-4,6,7,8-tetrahydropyrrolo[1,2-a]pyrazine-6-carboxamide]: the Ki on MASP-2 (CCP1-CCP2-SP) and on human α-thrombin was less than 500 nM each time.

As for `Cc1cc(C)cc([C@@H](CO)Nc2ncc3n(c2=O)[C@H](C(=O)NCc2cc4c(s2)CNC4)CC3)c1` [Compound 92, (S)-N-((5,6-dihydro-4H-thieno[2,3-c]pyrrol-2-yl)methyl)-3-(((S)-1-(3,5-dimethylphenyl)-2-hydroxyethyl)amino)-4-oxo-4,6,7,8-tetrahydropyrrolo[1,2-a]pyrazine-6-carboxamide], the Ki at MASP-2 (CCP1-CCP2-SP) and on human α-thrombin was less than 500 nM in each case.

As to `Cc1ccccc1[C@@H](C)Nc1ncc2n(c1=O)[C@H](C(=O)NCc1cc3c(s1)CNC3)CC2` [Compound 93, (S)-N-((5,6-dihydro-4H-thieno[2,3-c]pyrrol-2-yl)methyl)-4-oxo-3-(((R)-1-(o-tolyl)ethyl)amino)-4,6,7,8-tetrahydropyrrolo[1,2-a]pyrazine-6-carboxamide], the Ki at MASP-2 (CCP1-CCP2-SP) and on human α-thrombin was less than 500 nM in each case.

On to `Cc1ccccc1[C@H](C)Nc1ncc2n(c1=O)[C@H](C(=O)NCc1cc3c(s1)CNC3)CC2` [Compound 94, (S)-N-((5,6-dihydro-4H-thieno[2,3-c]pyrrol-2-yl)methyl)-4-oxo-3-(((S)-1-(o-tolyl)ethyl)amino)-4,6,7,8-tetrahydropyrrolo[1,2-a]pyrazine-6-carboxamide], for which the Ki is less than 500 nM on MASP-2 (CCP1-CCP2-SP) and 500 to 2500 nM at human α-thrombin.

In the case of `Cc1cccc([C@H](C)Nc2ncc3n(c2=O)[C@H](C(=O)NCc2cc4c(s2)CNC4)CC3)c1` [Compound 95, (S)-N-((5,6-dihydro-4H-thieno[2,3-c]pyrrol-2-yl)methyl)-4-oxo-3-(((S)-1-(m-tolyl)ethyl)amino)-4,6,7,8-tetrahydropyrrolo[1,2-a]pyrazine-6-carboxamide], the inhibition constant (Ki) at MASP-2 (CCP1-CCP2-SP) was less than 500 nM; at human α-thrombin it was 500 to 2500 nM.

Regarding `Cc1cc(C)cc(CNc2ncc3n(c2=O)[C@H](C(=O)NCc2cc4c(s2)CNC4)CC3)c1` [Compound 96, (S)-N-((5,6-dihydro-4H-thieno[2,3-c]pyrrol-2-yl)methyl)-3-((3,5-dimethylbenzyl)amino)-4-oxo-4,6,7,8-tetrahydropyrrolo[1,2-a]pyrazine-6-carboxamide], the Ki at MASP-2 (CCP1-CCP2-SP) and at human α-thrombin was less than 500 nM each time.

In the case of `Cc1cc(C)cc(CNc2ncc3n(c2=O)[C@H](C(=O)NCc2cc4cnccc4[nH]2)CC3)c1` [Compound 97, (S)—N-((1H-pyrrolo[3,2-c]pyridin-2-yl)methyl)-3-((3,5-dimethylbenzyl)amino)-4-oxo-4,6,7,8-tetrahydropyrrolo[1,2-a]pyrazine-6-carboxamide trifluoroacetate], the Ki is less than 500 nM at MASP-2 (CCP1-CCP2-SP) and 500 to 2500 nM at human α-thrombin.

Take `Cc1nc(N)ccc1CNC(=O)[C@@H]1CCc2c(Cl)nc(NCc3cccc(S(C)(=O)=O)c3)c(=O)n21` [Compound 98, (S)—N-((6-amino-2-methylpyridin-3-yl)methyl)-1-chloro-3-((3-(methylsulfonyl)benzyl)amino)-4-oxo-4,6,7,8-tetrahydropyrrolo[1,2-a]pyrazine-6-carboxamide trifluoroacetate]: the Ki on MASP-2 (CCP1-CCP2-SP) was less than 500 nM; at human α-thrombin it was 500 to 2500 nM.

For `Cc1nc(N)ccc1CNC(=O)[C@@H]1CCc2cnc(NCc3cccc(S(C)(=O)=O)c3)c(=O)n21` [Compound 99, (S)—N-((6-amino-2-methylpyridin-3-yl)methyl)-3-((3-(methylsulfonyl)benzyl)amino)-4-oxo-4,6,7,8-tetrahydropyrrolo[1,2-a]pyrazine-6-carboxamide trifluoroacetate], the Ki at MASP-2 (CCP1-CCP2-SP) and on human α-thrombin was less than 500 nM throughout.

Regarding `O=C(NCc1cc2cnccc2[nH]1)[C@@H]1CCc2c(Cl)nc(NC3CCC3)c(=O)n21` [Compound 100, (S)—N-((1H-pyrrolo[3,2-c]pyridin-2-yl)methyl)-1-chloro-3-(cyclobutylamino)-4-oxo-4,6,7,8-tetrahydropyrrolo[1,2-a]pyrazine-6-carboxamide trifluoroacetate], the Ki on MASP-2 (CCP1-CCP2-SP) was less than 500 nM; at human α-thrombin, more than 25000 nM.

For `O=C(NCc1cc2cnccc2[nH]1)[C@@H]1CCc2c(Cl)nc(NCC3CCOCC3)c(=O)n21` [Compound 101, trifluoroacetate], the Ki was less than 500 nM on MASP-2 (CCP1-CCP2-SP) and more than 25000 nM at human α-thrombin.

Regarding `O=C(NCc1cc2cnccc2[nH]1)[C@@H]1CCc2cnc(NCc3ccccc3)c(=O)n21` [Compound 102, (S)—N-((1H-pyrrolo[3,2-c]pyridin-2-yl)methyl)-3-(benzylamino)-4-oxo-4,6,7,8-tetrahydropyrrolo[1,2-a]pyrazine-6-carboxamide], the results for the Ki on MASP-2 (CCP1-CCP2-SP) and at human α-thrombin were less than 500 nM and 500 to 2500 nM, respectively.

Turning to `Cc1cc2[nH]c(CNC(=O)[C@@H]3CCc4cnc(NCc5ccccc5)c(=O)n43)cc2cn1` [Compound 103, (S)-3-(benzylamino)-N-((6-methyl-1H-pyrrolo[3,2-c]pyridin-2-yl)methyl)-4-oxo-4,6,7,8-tetrahydropyrrolo[1,2-a]pyrazine-6-carboxamide], the Ki was less than 500 nM at MASP-2 (CCP1-CCP2-SP) and more than 25000 nM at human α-thrombin.

As to `Cc1nc(N)ccc1CNC(=O)[C@@H]1CCc2cnc(NCc3ccccc3)c(=O)n21` [Compound 104, (S)-N-((6-amino-2-methylpyridin-3-yl)methyl)-3-(benzylamino)-4-oxo-4,6,7,8-tetrahydropyrrolo[1,2-a]pyrazine-6-carboxamide], the Ki at MASP-2 (CCP1-CCP2-SP) and at human α-thrombin was less than 500 nM throughout.

For the compound `O=C(NCc1cc2cnccc2[nH]1)[C@@H]1CCc2c(Cl)nc(NCc3ccccc3)c(=O)n21` [Compound 105, (S)—N-((1H-pyrrolo[3,2-c]pyridin-2-yl)methyl)-3-(benzylamino)-1-chloro-4-oxo-4,6,7,8-tetrahydropyrrolo[1,2-a]pyrazine-6-carboxamide], the Ki at MASP-2 (CCP1-CCP2-SP) was less than 500 nM; at human α-thrombin, 10000 to 25000 nM.

`O=C(NCc1cc2cnccc2[nH]1)[C@@H]1CCc2c(Cl)nc(NC3(c4ccccc4)CC3)c(=O)n21` [Compound 106, (S)-N-((1H-pyrrolo[3,2-c]pyridin-2-yl)methyl)-1-chloro-4-oxo-3-((1-phenylcyclopropyl)amino)-4,6,7,8-tetrahydropyrrolo[1,2-a]pyrazine-6-carboxamide]: the Ki is less than 500 nM at MASP-2 (CCP1-CCP2-SP) and 2500 to 10000 nM at human α-thrombin.

With `O=C(NCc1cc(Cl)ccc1-n1cnnn1)[C@@H]1CCc2c(Cl)nc(NCc3ccccc3)c(=O)n21` [Compound 107, (S)-3-(benzylamino)-1-chloro-N-(5-chloro-2-(1H-tetrazol-1-yl)benzyl)-4-oxo-4,6,7,8-tetrahydropyrrolo[1,2-a]pyrazine-6-carboxamide], the Ki at MASP-2 (CCP1-CCP2-SP) is 500 to 2500 nM; on human α-thrombin, less than 500 nM.

Regarding `Cc1cc(C)cc(CNc2ncc3n(c2=O)[C@H](C(=O)NCc2cnc4c(c2)CNC4)CC3)c1` [Compound 108, (S)—N-((6,7-dihydro-5H-pyrrolo[3,4-b]pyridin-3-yl)methyl)-3-((3,5-dimethylbenzyl)amino)-4-oxo-4,6,7,8-tetrahydropyrrolo[1,2-a]pyrazine-6-carboxamide], the Ki is less than 500 nM on MASP-2 (CCP1-CCP2-SP) and 10000 to 25000 nM at human α-thrombin.

Take `Cc1cc(C)cc(CNc2ncc3n(c2=O)[C@H](C(=O)NCc2ccc(CN)nc2)CC3)c1` [Compound 109, (S)-N-((6-(aminomethyl)pyridin-3-yl)methyl)-3-((3,5-dimethylbenzyl)amino)-4-oxo-4,6,7,8-tetrahydropyrrolo[1,2-a]pyrazine-6-carboxamide trifluoroacetate]: the Ki at MASP-2 (CCP1-CCP2-SP) is less than 500 nM; at human α-thrombin, 2500 to 10000 nM.

Consider `Cc1cccc(C2(Nc3nc(Cl)c4n(c3=O)[C@H](C(=O)NCc3cc5cnccc5[nH]3)CC4)CC2)c1` [Compound 110, (S)—N-((1H-pyrrolo[3,2-c]pyridin-2-yl)methyl)-1-chloro-4-oxo-3-((1-(m-tolyl)cyclopropyl)amino)-4,6,7,8-tetrahydropyrrolo[1,2-a]pyrazine-6-carboxamide trifluoroacetate], for which the figures for the Ki on MASP-2 (CCP1-CCP2-SP) and on human α-thrombin were less than 500 nM and 2500 to 10000 nM, respectively.

Turning to `Cc1cccc(C2(Nc3ncc4n(c3=O)[C@H](C(=O)NCc3cc5cnccc5[nH]3)CC4)CC2)c1` [Compound 111, (S)—N-((1H-pyrrolo[3,2-c]pyridin-2-yl)methyl)-4-oxo-3-((1-(m-tolyl)cyclopropyl)amino)-4,6,7,8-tetrahydropyrrolo[1,2-a]pyrazine-6-carboxamide trifluoroacetate], the Ki at MASP-2 (CCP1-CCP2-SP) is less than 500 nM; on human α-thrombin it was 2500 to 10000 nM.

Take `O=C(NCc1cc2cnccc2[nH]1)[C@@H]1CCc2c(Cl)nc(NCC3CCCCC3)c(=O)n21` [Compound 112, (S)-N-((1H-pyrrolo[3,2-c]pyridin-2-yl)methyl)-1-chloro-3-((cyclohexylmethyl)amino)-4-oxo-4,6,7,8-tetrahydropyrrolo[1,2-alpyrazine-6-carboxamide trifluoroacetate]: the values for the Ki at MASP-2 (CCP1-CCP2-SP) and at human α-thrombin were less than 500 nM and more than 25000 nM, respectively.

On to `O=C(NCc1cc2cnccc2[nH]1)[C@@H]1CCc2cnc(NCC3CCCCC3)c(=O)n21` [Compound 113, (S)-N-((1H-pyrrolo[3,2-c]pyridin-2-yl)methyl)-3-((cyclohexylmethyl)amino)-4-oxo-4,6,7,8-tetrahydropyrrolo[1,2-alpyrazine-6-carboxamide trifluoroacetate], for which the Ki was less than 500 nM on MASP-2 (CCP1-CCP2-SP) and 2500 to 10000 nM on human α-thrombin.
